Values quoted from earlier work, collected in patent publication US20210290563A1, “COMPOSITIONS AND METHODS FOR TREATING NEUROP[…]” (BIONICHE GLOBAL DEVELOPMENT, LLC, priority 2017, published 2021).
Where two headings read alike, the source gives them in different places.

What was measured:
[1] = not given; remark: listed apart in the source

SMILES | solubility in water | bioavailability estimates ([1]; buccal administration) | bioavailability estimates ([1]; intramuscular administration) | bioavailability estimates ([1]; intranasal administration) | bioavailability estimates ([1]; intravenous administration) | bioavailability estimates ([1]; oral administration) | bioavailability estimates ([1]; rectal administration) | bioavailability estimates ([1]; transdermal administration)
CC(C)c1cccc(C(C)C)c1OCOP(=O)(O)O [Fospropofol disodium] | water-soluble |  |  |  |  |  |  | 
CC(C)c1cccc(C(C)C)c1O [Propofol, 2,6-diisopropylphenol] | only sparingly soluble in water | ~50% | ~93% | 25-50% | ~100% | 13-27% | ~25% | ~10%
